The values below come from patent US20090023737A1, “Imidazo-Pyridazines, Triazolo-Pyridazines and Related Benzodiazepine Receptor Ligands” (NEUROGEN CORPORATION, priority 2004, published 2009).

The target in the assay is benzodiazepine site of the GABAA receptor. The assay can be described thus: Radioligand binding assay, 3H-Ro15-1788 (Flumazenil), purified rat cortical membranes. As to conditions: previously determined; used in the Cheng-Prusoff equation; read-out: binding dissociation constant (Kd) of 3H-Ro15-1788.

SMILES strings stand for the structures.

As to `CCOC(=O)c1ncn2c1CN(C)C(=O)c1cc(F)ccc1-2` [^3H-Ro15-1788], the Kd (usually the concentration at which binding is half-saturated) came to 1 nM.
